Results from PubChem BioAssay AID179 (DTP/NCI, 2004).
pEC50, pIC50: −log10 of the molar value. Active and inactive are the calls of the source.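 How the source made its calls: active means compounds giving half or more protection of infected cells from virus-caused growth loss, again on retest; inactive means the rest.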

System: CEM cells HIV-1 protection, formazan growth assay
Test: NCI AIDS Antiviral Assay
Conditions: for pIC50: measured here: growth of uninfected CEM cells
Summary of the method: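 Five concentrations of each compound were applied to infected and uninfected human CEM cells. Protection from HIV-1 was judged from growth measured with a soluble formazan assay.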

**Q.** Which outcome does the source give for CCOC(=O)CCc1c(C)c2c(OC)cc(OC)cc2oc1=O here?
**A.** inactive

**Q.** With COC1=C(C)C(=O)c2nc(COC(C)=O)ccc2C1=O as the molecule, how does the outcome read?
**A.** inactive

**Q.** How did the pEC50 turn out when COC(=O)CC1C=CC(C)(OC)OO1 (stereo unspecified) was run?
**A.** < 3.70

**Q.** What about the pIC50 of the same molecule?
**A.** 4.03

**Q.** How did the pEC50 turn out when COC(=O)CCc1cccnc1/C=N/O was run?
**A.** < 2.92

**Q.** And the pIC50?
**A.** 3.90

**Q.** O=C1NC(=O)C(=Cc2ccc(Cl)cc2)C(=O)N1 was tested. Which pEC50 did it give?
**A.** < 4.12

**Q.** And the outcome?
**A.** inactive

**Q.** What about the pIC50 of the same molecule?
**A.** < 4.12

**Q.** CC1(C)N([O-])[N+](=O)C1(Br)c1ccccc1 (stereo unspecified) was tested. Which pEC50 did it give?
**A.** < 3.70

**Q.** And the pIC50?
**A.** 3.84

**Q.** With Oc1ccccc1/C=N/N=C/c1ccccc1O as the molecule, how does the pEC50 read?
**A.** < 3.70

**Q.** And the pIC50?
**A.** < 3.70

**Q.** With CCOP(=O)(OCC)C(C)(CC)NC (stereo unspecified) as the molecule, how does the pEC50 read?
**A.** < 3.70

**Q.** And the pIC50?
**A.** < 3.70

**Q.** Fc1ccc2c3c([nH]c2c1)CCN(Cc1ccccc1)C3 was tested. Which pEC50 did it give?
**A.** < 3.70

**Q.** And the pIC50?
**A.** 4.42

**Q.** With O=C(O)/N=N\C(=O)O as the molecule, how does the pEC50 read?
**A.** < 3.82

**Q.** And the pIC50?
**A.** < 3.82

**Q.** What does the source list for CN(C)CCCN1CCc2c([nH]c3ccccc23)C1c1cccnc1 (stereo unspecified)?
**A.** pEC50: < 3.97; pIC50: < 3.97

**Q.** With O=C(Nc1ccccc1CCl)Nc1ccccc1CCl (tested in a mixture with another compound) as the molecule, how does the pEC50 read?
**A.** < 3.70

**Q.** What about the pIC50 of the same molecule?
**A.** 4.38

**Q.** CN1C(=NCCO)NS(=O)(=O)c2ccccc21 was tested. Which pEC50 did it give?
**A.** < 3.01

**Q.** And the pIC50?
**A.** < 3.01

**Q.** c1ccc2c(c1)NC1CCN2C1 (stereo unspecified) was tested. Which pEC50 did it give?
**A.** < 3.09

**Q.** What about the pIC50 of the same molecule?
**A.** < 3.09

**Q.** With COc1cc(CC2COC(=O)[C@@H]2Cc2ccc(O)c(OC)c2)ccc1O (stereo partly specified) as the molecule, how does the pEC50 read?
**A.** < 3.70

**Q.** And the pIC50?
**A.** 4.02

**Q.** C[C@@H](c1ccccc1)N1CN(C(=O)OCc2ccccc2)C(CO)C1=O (stereo partly specified) was tested. Which pEC50 did it give?
**A.** < 3.70

**Q.** And the pIC50?
**A.** 3.73

**Q.** With COc1c(OC(C)=O)cc2c(OC(C)=O)c1CC(C)CC(OC)C(O)C(C)/C=C(\C)C(OC(N)=O)C(OC)/C=C\C=C(/C)C(=O)N2 (stereo unspecified) as the molecule, how does the pEC50 read?
**A.** < 3.71

**Q.** And the pIC50?
**A.** 5.52

**Q.** COc1ccc2c(c1)OCC1Cc3cccc(OC)c3OC21 (stereo unspecified) was tested. Which pEC50 did it give?
**A.** < 3.70

**Q.** And the pIC50?
**A.** 4.35

**Q.** What does the source list for CC(=O)N=S(NC(=O)c1ccc(C)cc1)C(Cl)(Cl)Cl (stereo unspecified)?
**A.** pEC50: < 3.70; pIC50: 4.47

**Q.** What does the source list for COC(=O)c1cccc2cccc(C(=O)N(C)CCN(C)C)c12?
**A.** pEC50: < 3.15; pIC50: < 3.15

**Q.** CCCCCCC(O)C/C=C/CCCCCC/C(C(=O)OC)=C(/O)C(=O)OCC (stereo unspecified) was tested. Which pEC50 did it give?
**A.** < 4.08

**Q.** And the pIC50?
**A.** < 4.08

**Q.** O/N=C1/C(=C/c2ccccc2)CCCC1C(NO)c1ccccc1 (stereo unspecified) was tested. Which pEC50 did it give?
**A.** < 4.09

**Q.** And the pIC50?
**A.** < 4.09

**Q.** With CCCc1cc(=O)oc2c3c(c4c(c12)OC(C)(C)CC4)O[C@H](C)C(C)[C@@H]3O (stereo partly specified) as the molecule, how does the pEC50 read?
**A.** < 3.70

**Q.** And the pIC50?
**A.** 3.79

**Q.** What does the source list for COC(=O)C(=O)/C=C(/O)c1c(C)[nH]c2ccccc12?
**A.** pEC50: < 3.70; pIC50: < 3.70

**Q.** How did the pEC50 turn out when O=C(Nc1nc(C23CC4CC(CC(C4)C2)C3)cs1)c1cc2cc(Br)cc(Br)c2oc1=O was run?
**A.** < 3.70

**Q.** And the pIC50?
**A.** 3.87

**Q.** How did the pEC50 turn out when OCC1OC(n2cnc3c(SSc4ncnc5c4ncn5C4OC(CO)C(O)C4O)ncnc32)C(O)C1O (stereo unspecified) was run?
**A.** < 3.70

**Q.** What about the pIC50 of the same molecule?
**A.** < 3.70

**Q.** How did the pEC50 turn out when S=C(N/N=C(/c1ccccc1)c1ccccn1)Nc1cccc(Cl)c1 was run?
**A.** < 6.70

**Q.** And the pIC50?
**A.** 7.05

**Q.** With O=C(O)c1cc2cc3c(cc2c2ccccc12)OCO3 as the molecule, how does the pEC50 read?
**A.** < 3.31

**Q.** What about the pIC50 of the same molecule?
**A.** 3.55

**Q.** With Cc1ccc(C2SC(N)=Nc3c2c(C)nn3C(=O)c2ccc(Cl)cc2)cc1 (stereo unspecified) as the molecule, how does the outcome read?
**A.** inactive

**Q.** With C=CCNC1=C2C[C@@H](C)C[C@@H](OC)C(OC(=O)CCCN(C)C)[C@H](C)/C=C(\C)[C@@H](OC(N)=O)[C@H](OC)/C=C\C=C(/C)C(=O)NC(=CC1=O)C2=O (stereo partly specified) as the molecule, how does the pEC50 read?
**A.** < 3.70

**Q.** And the pIC50?
**A.** 4.96

**Q.** Which results are given for COc1ccc(C2=NNC(=O)CC2)cc1OC?
**A.** pEC50: < 2.97; pIC50: 3.26

**Q.** How did the pEC50 turn out when CSc1ncc2c(C#N)c3sc4ccccc4n3c(=O)c2n1 was run?
**A.** < 3.70

**Q.** And the pIC50?
**A.** < 3.70

**Q.** With CC(=O)OC[C@@H]1[C@H]2CC(=O)O[C@H]2C[C@H]1OC(C)=O as the molecule, how does the outcome read?
**A.** inactive

**Q.** Which results are given for O=C1CCCCCCCCCCOC(=O)CCCCCCCCCCO1?
**A.** pEC50: < 4.99; pIC50: < 4.99

**Q.** What does the source list for CCOC(=O)c1c(NC(=O)c2cccs2)sc2c1CCC2?
**A.** pEC50: 3.71; pIC50: < 3.70

**Q.** What does the source list for COc1ccc(N2C(=O)/C(=C\c3cccc(Oc4ccccc4)c3)S(=O)(=O)C2c2ccccc2)cc1 (stereo unspecified)?
**A.** pEC50: < 3.70; pIC50: 4.54

**Q.** How did the pEC50 turn out when O=c1ccc2cc(Cl)ccc2o1 was run?
**A.** < 4.12

**Q.** And the pIC50?
**A.** < 4.12

**Q.** Which results are given for COc1cc2cc[n+](C)c(Cc3ccccc3)c2cc1OC?
**A.** pEC50: < 3.70; pIC50: 3.78

**Q.** What does the source list for Cc1ccc2c(c1)-c1nc(N)c(C#N)c(-c3ccc(Cl)cc3)c1CCS2(=O)=O?
**A.** pEC50: < 3.70; pIC50: 4.53

**Q.** For CN(C)CC/C(=N\Nc1ccc(Cl)cc1Cl)c1ccccc1, which outcome is on record?
**A.** inactive

**Q.** Which results are given for CCN(CC)Cc1cc(Nc2c3ccccc3nc3c4ccccc4n(C)c23)cc(CN(CC)CC)c1O?
**A.** pEC50: < 3.81; pIC50: 5.51

**Q.** CC(C)(C)OC(=O)N1CC(O)O[C@H](c2ccccc2)[C@@H]1c1ccccc1 (stereo partly specified) was tested. Which pEC50 did it give?
**A.** < 3.70

**Q.** What about the pIC50 of the same molecule?
**A.** 4.49

**Q.** Which outcome does the source give for Nc1cccc2c1-c1c(cccc1[N+](=O)[O-])C2=O here?
**A.** inactive
